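Following 48 hours of exposure in 96-well plates, responses at five concentrations were used to interpolate endpoints linearly. GI50 is the concentration that inhibits growth by half.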 The source made the active and inactive calls. Rule as the data show it: active = GI50 up to about 1.1 µM and inactive = higher.
Experiments:
Assay in all cases: DTP human tumour cell line panel, 48 h
[1] = system: UO-31
[2] = system: Malme-3M
[3] = system: NCI-H522
[4] = system: ACHN
[5] = system: HCT-15
[6] = system: MCF7
[7] = system: KM12
[8] = system: HCT-116
[9] = system: NCI-H226
[10] = system: MOLT-4
[11] = system: CAKI-1
[12] = system: PC-3
[13] = system: SK-OV-3
[14] = system: A498
[15] = system: NCI/ADR-RES
[16] = system: K562
[17] = system: SF-539
[18] = system: COLO 205
[19] = system: SR

Row | SMILES | GI50 [1] | GI50 [2] | GI50 [3] | GI50 [4] | GI50 [5] | GI50 [6] | GI50 [7] | GI50 [8] | GI50 [9] | GI50 [10] | GI50 [11] | GI50 [12] | GI50 [13] | GI50 [14] | GI50 [15] | GI50 [16] | GI50 [17] | GI50 [18] | GI50 [19]
1 | COc1cc(/C=C2\C[C@H]3[C@@H]4CC=C5C[C@@H](O)CC[C@]5(C)[C@H]4CC[C@]3(C)C2=O)cc(OC)c1OC | 17.5 µM (inactive) | 32.7 µM (inactive) | 16.9 µM (inactive) | 30.5 µM (inactive) | 22.1 µM | 20.8 µM (inactive) | 27.2 µM (inactive) | 20.1 µM (inactive) | 31.4 µM (inactive) | 16.3 µM (inactive) | 36.9 µM (inactive) | 28.1 µM (inactive) | 53.1 µM (inactive) | 51.6 µM (inactive) | 27.5 µM (inactive) | 12.2 µM (inactive) | 49 µM (inactive) | 20.7 µM (inactive) | 
2 | O=[N+]([O-])c1ccc(-c2ccc([C@H]3CC(c4cc(F)c(Cl)cc4Cl)=NN3)o2)cc1 | 69.3 µM (inactive) | 19.2 µM (inactive) | 16.6 µM (inactive) | 32.1 µM (inactive) | 1.52 µM | 16.7 µM (inactive) | 0.625 µM (active) | 29.6 µM (inactive) | 21.9 µM (inactive) | 1.95 µM (inactive) | 25.9 µM (inactive) |  | 39.2 µM (inactive) | 35.5 µM (inactive) | 21.6 µM (inactive) | 22.9 µM (inactive) | 5.38 µM (inactive) |  | 0.621 µM (active)
3 | O=C1NCCCNCCCNCCCNC(=O)c2cccc1n2 | > 100 µM (inactive) | > 100 µM (inactive) | > 100 µM (inactive) | > 100 µM (inactive) | > 100 µM |  | > 100 µM (inactive) | > 100 µM (inactive) | > 100 µM (inactive) | > 100 µM (inactive) | > 100 µM (inactive) | > 100 µM (inactive) | > 100 µM (inactive) |  | > 100 µM (inactive) | > 100 µM (inactive) | > 100 µM (inactive) | > 100 µM (inactive) | > 100 µM (inactive)
4 | C\C(=N/N=C1/C(=C\N(C)C)C(=O)NC(=O)N1C)c1ccc(Cl)cc1 | > 100 µM (inactive) | > 100 µM (inactive) | 62.2 µM (inactive) | > 100 µM (inactive) | > 100 µM | > 100 µM (inactive) | 44.6 µM (inactive) | 74.1 µM (inactive) | 68.5 µM (inactive) | > 100 µM (inactive) | 76.4 µM (inactive) | 72.1 µM (inactive) | > 100 µM (inactive) | > 100 µM (inactive) | > 100 µM (inactive) | > 100 µM (inactive) | > 100 µM (inactive) | > 100 µM (inactive) | 
5 | CC(=O)Nc1ccc(C(=O)NN2C(=O)CSC2c2ccc(O)cc2)cc1 (centres undefined) | > 100 µM (inactive) |  |  | > 100 µM (inactive) | > 100 µM | > 100 µM (inactive) | > 100 µM (inactive) | > 100 µM (inactive) | > 100 µM (inactive) | > 100 µM (inactive) |  |  | > 100 µM (inactive) | > 100 µM (inactive) | > 100 µM (inactive) | > 100 µM (inactive) | > 100 µM (inactive) | > 100 µM (inactive) | 
6 | COc1ccc(C(C#N)NC23CC4CC(CC(C4)C2)C3)cc1OC (centres undefined) | 84.3 µM (inactive) | > 100 µM (inactive) | > 100 µM (inactive) | > 100 µM (inactive) | > 100 µM | > 100 µM (inactive) | > 100 µM (inactive) | > 100 µM (inactive) | 79.4 µM (inactive) | > 100 µM (inactive) | > 100 µM (inactive) | > 100 µM (inactive) | > 100 µM (inactive) |  | > 100 µM (inactive) | > 100 µM (inactive) | > 100 µM (inactive) | > 100 µM (inactive) | > 100 µM (inactive)
7 | CCOC(=O)Cn1c(=O)ccn(COCCO)c1=O | > 100 µM (inactive) | > 100 µM (inactive) | > 100 µM (inactive) | > 100 µM (inactive) | > 100 µM | > 100 µM (inactive) | > 100 µM (inactive) |  |  | > 100 µM (inactive) | > 100 µM (inactive) | > 100 µM (inactive) |  | > 100 µM (inactive) | > 100 µM (inactive) | > 100 µM (inactive) | > 100 µM (inactive) | > 100 µM (inactive) | > 10 µM (inactive)
8 | CCC1OC2C(CC=C(C)C)=C3OC(C)(O)C(C)(CC)C(O)C3=C3OC(=O)C=C1C32 (centres undefined) | 25.4 µM (inactive) |  |  | 38.3 µM (inactive) | 33 µM | 31.3 µM (inactive) | 34.7 µM (inactive) | 26.6 µM (inactive) | 55.1 µM (inactive) | 24.5 µM (inactive) | > 100 µM (inactive) | 68.5 µM (inactive) | > 100 µM (inactive) | > 100 µM (inactive) | 42.8 µM (inactive) | 10.8 µM (inactive) | 15.8 µM (inactive) | 29.9 µM (inactive) | 
